Source: ChEMBL document CHEMBL1201862, “PubChem BioAssay data set” (2004)
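The compound was tested at five concentrations on cells cultured in 96-well plates, with a 48-hour exposure period. Here, GI50 denotes the concentration required for 50% inhibition of growth.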 Activity calls are given as the source filed them. Cut-off read from the data, not from the text of the source: active = GI50 up to about 1.1 µM and inactive = higher.

Key:
Assay in all cases: inhibition of tumour cell growth, NCI panel, 48 h
SF-539 = tested on: SF-539
HT-29 = tested on: HT-29
NCI-H23 = tested on: NCI-H23
SN12C = tested on: SN12C
HCC 2998 = tested on: HCC 2998
IGROV-1 = tested on: IGROV-1
U-251 = tested on: U-251
OVCAR-4 = tested on: OVCAR-4
786-0 = tested on: 786-0
KM12 = tested on: KM12
HOP-92 = tested on: HOP-92
M14 = tested on: M14
RPMI-8226 = tested on: RPMI-8226
EKVX = tested on: EKVX
SK-MEL-28 = tested on: SK-MEL-28
NCI-H522 = tested on: NCI-H522
UACC-62 = tested on: UACC-62
RXF 393 = tested on: RXF 393

Measured: GI50

COc1ccc2c(c1)C(=O)C1CC(=O)CCC21 (stereo not drawn)
inactive: SF-539 > 100 µM | HT-29 > 100 µM | NCI-H23 > 100 µM | SN12C > 100 µM | HCC 2998 > 100 µM | IGROV-1 > 100 µM | U-251 > 100 µM | OVCAR-4 > 100 µM | 786-0 > 100 µM | KM12 > 100 µM | HOP-92 > 100 µM | M14 > 100 µM | RPMI-8226 > 100 µM | EKVX > 100 µM | SK-MEL-28 > 100 µM | NCI-H522 > 100 µM | UACC-62 > 100 µM

O=C(O)c1c([N+](=O)[O-])cc(C(F)(F)F)cc1[N+](=O)[O-]
inactive: SF-539 > 100 µM | HT-29 > 100 µM | NCI-H23 > 100 µM | SN12C > 100 µM | RXF 393 > 100 µM | IGROV-1 > 100 µM | U-251 > 100 µM | OVCAR-4 > 100 µM | 786-0 > 100 µM | KM12 > 100 µM | HOP-92 74.6 µM | M14 > 100 µM | RPMI-8226 > 100 µM | EKVX > 100 µM | SK-MEL-28 > 100 µM | NCI-H522 > 100 µM

CC(CCCOC(c1ccccc1)(c1ccccc1)c1ccccc1)OC(=O)Nc1ccccc1 (stereo not drawn)
inactive: SF-539 17.8 µM | HT-29 13.1 µM | NCI-H23 9.84 µM | SN12C 12 µM | HCC 2998 14.1 µM | RXF 393 12.8 µM | IGROV-1 16.4 µM | U-251 13.6 µM | OVCAR-4 12.4 µM | 786-0 16.1 µM | KM12 14 µM | HOP-92 10 µM | M14 14.2 µM | RPMI-8226 15 µM | SK-MEL-28 15.3 µM | NCI-H522 11.7 µM | UACC-62 12.8 µM

CCNC(=O)COc1ccc(Cl)c(C)c1
inactive: SF-539 > 100 µM | HT-29 > 100 µM | NCI-H23 > 100 µM | SN12C > 100 µM | HCC 2998 > 100 µM | RXF 393 > 100 µM | IGROV-1 > 100 µM | U-251 > 100 µM | OVCAR-4 > 100 µM | 786-0 > 100 µM | KM12 > 100 µM | HOP-92 > 100 µM | M14 > 100 µM | RPMI-8226 > 100 µM | SK-MEL-28 > 100 µM | NCI-H522 > 100 µM | UACC-62 > 100 µM

CCCCCCCCOCC(O)COC (stereo not drawn)
inactive: HT-29 > 100 µM | NCI-H23 > 100 µM | SN12C > 100 µM | HCC 2998 > 100 µM | IGROV-1 > 100 µM | U-251 > 100 µM | OVCAR-4 > 100 µM | 786-0 > 100 µM | HOP-92 82.6 µM | M14 > 100 µM | RPMI-8226 > 100 µM | SK-MEL-28 > 100 µM | UACC-62 > 100 µM

COc1cc2cnc3c4cc(OC(C)C)c(OC)cc4ccc3c2cc1OC
inactive: SF-539 > 100 µM | HT-29 > 100 µM | NCI-H23 > 100 µM | SN12C > 100 µM | HCC 2998 > 100 µM | IGROV-1 > 100 µM | U-251 > 100 µM | OVCAR-4 > 100 µM | 786-0 > 100 µM | KM12 > 100 µM | M14 > 100 µM | RPMI-8226 > 100 µM | EKVX > 100 µM | SK-MEL-28 > 100 µM | NCI-H522 > 100 µM | UACC-62 > 100 µM

O=C(/C(=C/c1ccc(Cl)cc1)c1ccccc1)c1ccccc1
inactive: SF-539 17.4 µM | HT-29 18 µM | NCI-H23 17.5 µM | SN12C 16.7 µM | HCC 2998 16.9 µM | IGROV-1 18.7 µM | U-251 17 µM | OVCAR-4 18 µM | 786-0 22.3 µM | KM12 16.9 µM | HOP-92 13.9 µM | M14 16.3 µM | RPMI-8226 18.5 µM | EKVX 26.5 µM | SK-MEL-28 16.9 µM | NCI-H522 14.2 µM | UACC-62 15.6 µM

O=C(Cc1ccccc1)N/N=C(/c1nc2ccc([N+](=O)[O-])cc2nc1O)C(O)c1ccccc1Cl (stereo not drawn)
inactive: SF-539 > 100 µM | HT-29 > 100 µM | NCI-H23 > 100 µM | SN12C > 100 µM | HCC 2998 54 µM | IGROV-1 > 100 µM | U-251 > 100 µM | OVCAR-4 > 100 µM | 786-0 > 100 µM | KM12 79.3 µM | HOP-92 > 100 µM | M14 60.8 µM | RPMI-8226 > 100 µM | EKVX > 100 µM | SK-MEL-28 > 100 µM | NCI-H522 6.28 µM | UACC-62 > 100 µM

C/C(CN1C(=O)c2ccccc2C1=O)=N\NS(=O)(=O)c1cccc([N+](=O)[O-])c1
inactive: SF-539 > 100 µM | HT-29 > 100 µM | NCI-H23 > 100 µM | SN12C > 100 µM | HCC 2998 > 100 µM | RXF 393 > 100 µM | IGROV-1 > 100 µM | U-251 > 100 µM | OVCAR-4 > 100 µM | 786-0 > 100 µM | KM12 > 100 µM | M14 > 100 µM | RPMI-8226 > 100 µM | EKVX > 100 µM | SK-MEL-28 > 100 µM | NCI-H522 > 100 µM | UACC-62 > 100 µM

C/C(CCn1[nH]c(=O)ccc1=O)=N\NC(=O)C(N)=O
inactive: SF-539 > 100 µM | HT-29 > 100 µM | NCI-H23 > 100 µM | SN12C > 100 µM | HCC 2998 > 100 µM | RXF 393 > 100 µM | IGROV-1 > 100 µM | U-251 > 100 µM | OVCAR-4 > 100 µM | 786-0 > 100 µM | KM12 > 100 µM | HOP-92 > 100 µM | M14 > 100 µM | EKVX > 100 µM | SK-MEL-28 > 100 µM | NCI-H522 > 100 µM | UACC-62 > 100 µM

Cc1nc(Nc2ccc([N+](=O)[O-])cc2)sc1C(/C=C/c1ccc(N(C)C)cc1)=N/NC(=O)c1ccccc1
inactive: SF-539 42.9 µM | HT-29 39.1 µM | NCI-H23 47.8 µM | SN12C 59.3 µM | HCC 2998 41.3 µM | RXF 393 58.6 µM | IGROV-1 51.3 µM | U-251 56.6 µM | OVCAR-4 76 µM | 786-0 85.9 µM | KM12 36.4 µM | HOP-92 6.82 µM | M14 48.8 µM | EKVX 41.2 µM | SK-MEL-28 > 100 µM | NCI-H522 31 µM | UACC-62 4.84 µM

COc1ccc(/C(C#N)=C(/N)SCc2ccccc2Cl)cc1
inactive: SF-539 17.4 µM | HT-29 17.5 µM | NCI-H23 16.8 µM | SN12C 24.7 µM | HCC 2998 17 µM | RXF 393 16.6 µM | IGROV-1 29.2 µM | U-251 18.1 µM | 786-0 16.1 µM | KM12 > 10 µM | HOP-92 17.8 µM | M14 14.2 µM | RPMI-8226 22.8 µM | EKVX 21.2 µM | SK-MEL-28 17.9 µM | NCI-H522 14 µM | UACC-62 11.9 µM

O=C(O)C1C2CC3CC2CC31 (stereo not drawn)
inactive: SF-539 > 100 µM | NCI-H23 > 100 µM | SN12C > 100 µM | RXF 393 > 100 µM | IGROV-1 > 100 µM | U-251 > 100 µM | OVCAR-4 > 100 µM | 786-0 > 100 µM | KM12 > 100 µM | HOP-92 > 100 µM | M14 > 100 µM | RPMI-8226 > 100 µM | EKVX > 100 µM | SK-MEL-28 > 100 µM | NCI-H522 > 100 µM | UACC-62 > 100 µM

CCC12CC[C@H](C#N)N3CCc4c(n(c5ccccc45)C(=O)C1)C32 (stereo partly drawn)
inactive: SF-539 17.5 µM | HT-29 14.2 µM | NCI-H23 15.4 µM | SN12C 19.4 µM | HCC 2998 15.8 µM | RXF 393 13.3 µM | IGROV-1 24.8 µM | U-251 16.3 µM | OVCAR-4 12.1 µM | 786-0 16.9 µM | KM12 8.17 µM | M14 16.4 µM | RPMI-8226 17.9 µM | EKVX 23 µM | SK-MEL-28 15.2 µM | UACC-62 12.2 µM

CC(C)(O)[C@@H]1CC[C@@]2(C)CCCC(O)C2(O)C1 (stereo partly drawn)
inactive: SF-539 > 100 µM | HT-29 > 100 µM | NCI-H23 > 100 µM | SN12C > 100 µM | HCC 2998 > 100 µM | IGROV-1 > 100 µM | U-251 > 100 µM | OVCAR-4 > 100 µM | 786-0 > 100 µM | KM12 > 100 µM | HOP-92 > 100 µM | M14 > 100 µM | RPMI-8226 > 100 µM | SK-MEL-28 > 100 µM | NCI-H522 > 100 µM | UACC-62 > 100 µM

CCOC(=O)C[C@@]12CCCNC1(C)CCc1ccccc12 (stereo partly drawn)
inactive: SF-539 > 100 µM | HT-29 > 100 µM | SN12C > 100 µM | IGROV-1 > 100 µM | U-251 > 100 µM | 786-0 > 100 µM | KM12 > 100 µM | M14 > 100 µM | RPMI-8226 > 100 µM | EKVX > 100 µM | UACC-62 > 100 µM

COc1cc(C=O)c(-c2cc3c(cc2C=O)OCO3)c(OC)c1OC
inactive: SF-539 81.8 µM | HT-29 79.6 µM | NCI-H23 63.1 µM | SN12C 85.9 µM | HCC 2998 210 µM | RXF 393 63.5 µM | IGROV-1 143 µM | U-251 126 µM | 786-0 84.9 µM | KM12 59.3 µM | HOP-92 29.6 µM | RPMI-8226 96.6 µM | EKVX 178 µM | SK-MEL-28 144 µM | NCI-H522 41.8 µM | UACC-62 90.6 µM
